From patent publication US7351703B2, “Sulfonylamino carboxylic acid N-arylamides as guanylate cyclase activators” (Sanofi-Aventis Deutschland GmbH, priority 1999, dated 2008)

Columns and labels:
[1] = target: T1, soluble guanylate cyclase (sGC) (Bos taurus, UniProt P16068); test: Activation of soluble guanylate cyclase (cGMP enzyme immunoassay); assay type: biochemical; details: sGC isolated from bovine lung, stimulation of basal enzyme activity vs solvent control
T1 construct: The sGC employed had been isolated from bovine lung; from tissue; host or cells: bovine lung
T1 sequence (P16068 1-619): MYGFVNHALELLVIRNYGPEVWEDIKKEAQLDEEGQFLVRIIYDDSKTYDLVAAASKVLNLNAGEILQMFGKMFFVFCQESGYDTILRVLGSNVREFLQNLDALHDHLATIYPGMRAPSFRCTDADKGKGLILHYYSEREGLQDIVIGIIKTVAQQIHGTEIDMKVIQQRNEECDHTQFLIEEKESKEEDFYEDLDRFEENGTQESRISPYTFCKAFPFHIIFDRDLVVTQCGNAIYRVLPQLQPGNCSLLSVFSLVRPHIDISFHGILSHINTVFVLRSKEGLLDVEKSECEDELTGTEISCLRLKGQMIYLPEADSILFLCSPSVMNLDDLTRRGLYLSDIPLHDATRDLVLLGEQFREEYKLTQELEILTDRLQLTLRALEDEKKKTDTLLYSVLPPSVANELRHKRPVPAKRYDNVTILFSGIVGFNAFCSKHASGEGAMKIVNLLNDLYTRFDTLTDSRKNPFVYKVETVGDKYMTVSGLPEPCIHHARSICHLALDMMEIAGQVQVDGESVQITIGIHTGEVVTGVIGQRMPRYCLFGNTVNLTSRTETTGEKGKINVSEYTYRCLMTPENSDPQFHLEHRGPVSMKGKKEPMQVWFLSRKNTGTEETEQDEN
T1 sequence (P19687 1-691 partner): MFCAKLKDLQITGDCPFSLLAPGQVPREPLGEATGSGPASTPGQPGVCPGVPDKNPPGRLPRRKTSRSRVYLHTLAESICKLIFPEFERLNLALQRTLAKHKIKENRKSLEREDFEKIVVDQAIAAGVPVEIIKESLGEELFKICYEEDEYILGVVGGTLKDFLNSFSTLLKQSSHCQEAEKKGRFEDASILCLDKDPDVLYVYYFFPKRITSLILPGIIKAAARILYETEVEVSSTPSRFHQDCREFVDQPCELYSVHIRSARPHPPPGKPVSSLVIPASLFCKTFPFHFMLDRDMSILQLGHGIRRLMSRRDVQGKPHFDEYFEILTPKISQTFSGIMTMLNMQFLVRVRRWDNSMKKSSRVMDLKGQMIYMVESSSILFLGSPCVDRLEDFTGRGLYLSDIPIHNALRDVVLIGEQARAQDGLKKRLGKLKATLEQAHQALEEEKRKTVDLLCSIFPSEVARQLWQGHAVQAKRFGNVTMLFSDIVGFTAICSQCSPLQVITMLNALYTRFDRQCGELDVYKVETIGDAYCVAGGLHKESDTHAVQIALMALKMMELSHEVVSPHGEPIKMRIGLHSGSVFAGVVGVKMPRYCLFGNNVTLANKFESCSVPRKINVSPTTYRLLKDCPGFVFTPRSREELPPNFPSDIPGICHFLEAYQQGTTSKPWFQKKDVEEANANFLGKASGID
Method: The activation of soluble guanylate cyclase (sGC), which catalyzes the conversion of guanosine triphosphate (GTP) to cyclic guanosine monophosphate (cGMP) and pyrophosphate, by the compounds according to the invention was quantified with the aid of an enzyme immunoassay (EIA) from Amersham. For this, the test substances were first incubated with sGC in microtiter plates and then the quantity of the resulting cGMP was determined.
The sGC employed had been isolated from bovine lung (see Methods in Enzymology, Volume 195, p. 377). The test solutions (100 μl per well) contained 50 mM triethanolamine (TEA) buffer (pH 7.5), 3 mM MgCl2, 3 mM reduced glutathione (GSH), 0.1 mM GTP, 1 mM 3-isobutyl-1-methylxanthine (IBMX), suitably diluted enzyme solution and the test substance or, in the control experiments, solvent. The test substances were dissolved in dimethyl sulfoxide (DMSO) and the solution was diluted with DMSO/water such that the final concentration c of test substance in the test batch had the value indicated below. The DMSO concentration in the test batch was 5% (v/v). The reaction was started by addition of the sGC. The reaction mix was incubated at 37° C. for 15 to 20 minutes and then stopped by ice-cooling and addition of the stop reagent (50 mM EDTA, pH 8.0). An aliquot of 50 μl was taken and employed for the determination of the cGMP content using the acetylation protocol of the Amersham cGMP EIA kit. The absorption of the samples was measured at 450 nm (reference wavelength 620 nm) in a microtiter plate reading apparatus. The cGMP concentration was determined by means of a calibration curve, which was obtained under the same experimental conditions. The activation of the sGC by a test substance is indicated as n-fold stimulation of the basal enzyme activity which was found in the control experiments (with solvent instead of test substance) (calculated according to the formula n-fold stimulation=[cGMP]test substance/[cGMP]control).

Compound | melting point [°C] | n-fold stimulation ([1]; concentration c 100 μM) [n-fold] | n-fold stimulation ([1]; concentration c 50 μM) [n-fold] | n-fold stimulation ([1]; concentration c 25 μM) [n-fold] | n-fold stimulation ([1]; concentration c 10 μM) [n-fold]
CC(C)c1ccc(NC(=O)c2cc(Cl)ccc2NS(=O)(=O)c2ccc(Cl)cc2)cc1 [Example 16, 5-Chloro-2-(4-chlorophenylsulfonylamino)-N-(4-isopropylphenyl)benzamide] | 188 | 4.1 | – | – | –
CCOC(=O)c1ccc(NC(=O)c2cc(Cl)ccc2NS(=O)(=O)c2ccc(Cl)cc2)cc1 [Example 14, Ethyl 4-(5-chloro-2-(4-chlorophenylsulfonylamino)benzoylamino)benzoate] | 185 | 1.7 | – | – | –
O=C(Nc1ccc(N2CCOCC2)cc1)c1cc(Cl)ccc1NS(=O)(=O)c1ccc(Cl)cc1 [Example 21, 5-Chloro-2-(4-chlorophenylsulfonylamino)-N-(4-(morpholin-4-yl)phenyl)benzamide] | 228.5 | – | 8 | – | –
O=C(Nc1ccc(Oc2ccccc2)cc1)c1ccccc1NS(=O)(=O)c1ccc(Cl)cc1 [Example 7, 2-(4-Chlorophenylsulfonylamino)-N-(4-phenoxyphenyl)benzamide] | 143 | 2.8 | – | – | –
CC(=O)c1ccc(NC(=O)c2cc(Cl)ccc2NS(=O)(=O)c2ccc(Cl)cc2)cc1 [Example 24, 5-Chloro-2-(4-chlorophenylsulfonylamino)-N-(4-acetylphenyl)benzamide] | 226 | – | 2.4 | – | –
O=C(Nc1cccc(C(F)(F)F)c1)c1cc(Cl)ccc1NS(=O)(=O)c1ccc(Cl)cc1 [Example 4, 5-Chloro-2-(4-chlorophenylsulfonylamino)-N-(3-trifluoromethylphenyl)benzamide] | 216 | – | – | 5.5 | –
O=C(Nc1cc(Cl)cc(Cl)c1)c1cc(Cl)ccc1NS(=O)(=O)c1ccc(F)cc1 [Example 13, 5-Chloro-2-(4-fluorophenylsulfonylamino)-N-(3,5-dichlorophenyl)benzamide] | 250 | 1.8 | – | – | –
CCOC(=O)c1cc(NC(=O)c2cc(Cl)ccc2NS(=O)(=O)c2ccc(Cl)c(Cl)c2)ccc1Cl [Example 18, Ethyl 2-chloro-5-(5-chloro-2-(3,4-dichlorophenylsulfonylamino)benzoylamino)benzoate] | 202 | 3.2 | – | – | –
CS(=O)(=O)N(c1ccc(NC(=O)c2cc(Cl)ccc2NS(=O)(=O)c2ccc(Cl)cc2)cc1)S(C)(=O)=O [Example 15, 5-Chloro-2-(4-chlorophenylsulfonylamino)-N-(4-(bismethylsulfonylamino)phenyl)benzamide] | 235 | – | – | – | 9.9
O=C(Nc1ccc2ccccc2c1)c1ccccc1NS(=O)(=O)c1ccc(Cl)cc1 [Example 3, 2-(4-Chlorophenylsulfonylamino)-N-(2-naphthyl)benzamide] | 189 | 2 | – | – | –
O=C(Nc1ccc(Oc2ccc(Cl)cc2)cc1)c1cc(Cl)ccc1NS(=O)(=O)c1ccc(Cl)cc1 [Example 6, 5-Chloro-2-(4-chlorophenylsulfonylamino)-N-(4-(4-chlorophenoxy)phenyl)benzamide] | 207 | 4.2 | – | – | –
O=C(Nc1ccc(Oc2ccccc2)cc1)c1cc(Cl)ccc1NS(=O)(=O)c1ccc(Cl)cc1 [Example 5, 5-Chloro-2-(4-chlorophenylsulfonylamino)-N-(4-phenoxyphenyl)benzamide] | 205 | – | – | – | 9.3
